Consider 46 molecules from PubChem BioAssay (NCI).

Where “and” joins values, the source holds several entries; their conditions need not be identical. Equal entries are not always repeated.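 Test compounds were applied to cells in 96-well plates for 48 hours at 5 doses. GI50 marks 50% less growth. TGI marks complete inhibition of growth.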 A value given as a limit tells only on which side of the number the result lay.

In this assay the test system is MDA-MB-468 breast. In words: NCI-60 cell line screen, 48 h.
For `CN(C)CCCSc1ccccc1NC1=C(Cl)C(=O)C(Nc2ccccc2SCCCN(C)C)=C(Cl)C1=O`, the GI50 is 1520 nM and the TGI worked out at 3220 nM.
The like results for `COc1ccc(CCN(CC(=O)N(CC(N)=O)C2CCC[C@@H]2OCc2ccccc2)C(=O)CN(C(=O)CN(CCc2ccc(Cl)cc2)C(=O)CN(C(=O)CN(C)Cc2ccccc2F)[C@H](C)C2CCCCC2)[C@H](C)C2CCCCC2)cc1OC` (some centres not stated) were, in that order, 941 nM and 4200 nM.
The like results for `O=C(c1ccc(C(F)(F)F)c(Cl)c1)N(Cc1ccc(Cl)cc1)c1ccc(-c2cc(C(F)(F)F)[nH]n2)c(O)c1` were, in that order, 928 nM and 3910 nM.
Taken in the same sequence, the figures for `COC(=O)c1cc2oc(/C=C3/SC(=S)N(N)C3=O)cc2n1Cc1ccccc1` were 74400 nM and over 100000 nM.
As to `Cn1c(=O)nc2n(-c3ccc(Cl)cc3)c3cc(Cl)ccc3nc-2c1=O`, the GI50 was 1590 nM and the TGI is 3070 nM.
The like results for `COCCOC1=CC(=O)c2c(O)ccc(O)c2C1=O` were, in that order, 1270 nM and 2780 nM.
With `O=C1c2cccnc2C(=O)c2c1c(C(=O)OCCN1CCCCC1)c1ccccn21`, the GI50 was 869 nM and the TGI is 2840 nM.
Taken in the same sequence, the figures for `CC1(C)N=C(N)N=C(N)N1c1ccc(Cl)cc1` were 873 nM and over 100000 nM.
Taken in the same sequence, the figures for `CC(=O)CC/C=C(\C)[C@H](O)[C@H](C)C(=O)O[C@H]1C[C@H](C)C=C2C=C[C@@]3(C)O[C@@H](O)CC(=O)[C@]3(C)[C@H]21` were 454 nM and 2000 nM.
Take `COc1cc(N2C(=O)[C@H](c3ccccc3)C2c2ccc(SC)cc2)cc(OC)c1OC` (some centres not stated): the GI50 was 27.1 nM and the TGI is 92.9 nM.
In the case of `Cn1cc(C2=C(c3cn(-c4ccccc4)c4ccccc34)C(=O)NC2=O)c2ccccc21`, the GI50 is 7580 nM and the TGI was over 25000 nM.
Turning to `C#CC(=O)Nc1cccc2c1cc(C)n2-c1nc2c(c(NCc3ccccc3)n1)CCCC2`, the GI50 was 211 nM and the TGI amounted to 596 nM.
Taken in the same sequence, the figures for `CC1(C)N=C(N)N=C(N)N1c1ccc(OCCCNC(=O)Nc2cccc(S(=O)(=O)F)c2)c(Cl)c1` were 15700 nM and over 100000 nM.
The like results for `COc1cc(/C=C/c2cc(/C=C/c3ccc(O)c(OC)c3)n(C(=O)Nc3ccccc3Cl)n2)ccc1O` were, in that order, 264 nM and 748 nM.
Taken in the same sequence, the figures for `CCCC(=O)NC(c1ccc2c(c1)OC(F)(F)O2)c1cc(C)c2cccnc2c1O` (configuration not stated) were 370 nM and 2210 nM.
Consider `O=C(C=P(c1ccccc1)(c1ccccc1)c1ccccc1)CCl`, for which the GI50 was 268 nM and the TGI came to 1280 nM.
The like results for `Cc1ccc(C=C2C(Cl)=C(Cl)C(Cl)=C2Cl)cc1` were, in that order, 189 nM and 573 nM.
The like results for `COC(=O)c1ccccc1CC1Cc2cc3c(cc2C1=O)CCC3` (configuration not stated) were, in that order, 10600 nM and 42100 nM.
`CC(C)(C)c1cc(NC(=O)Nc2ccc(-c3cn4c(n3)sc3cc(OCCN5CCOCC5)ccc34)cc2)no1`: the GI50 is 3640 nM and 2550 nM and > 10000 nM; the TGI was 12200 nM and 14200 nM and > 10000 nM.
As to `COc1cc(/C=C2\CCC/C(=C\c3ccc(O)c(OC)c3)C2=O)ccc1O`, the GI50 is 1460 nM and the TGI amounted to 3480 nM.
In the case of `COC1=C(C)C(=O)c2c(c(CCCl)c3n2CCC3OC(C)=O)C1=O` (configuration not stated), the GI50 is 5010 nM and the TGI amounted to 22500 nM.
For the molecule `NC(=S)N/N=C1\c2ccccc2-c2c(F)c(F)c(F)c(F)c21`, the GI50 is 2490 nM and the TGI is 5140 nM.
Taken in the same sequence, the figures for `CC(C)(C)CC(C)(C)c1ccc(O)c(Cc2ccc(Cl)cc2Cl)c1` were 1660 nM and 3080 nM.
The like results for `C=CC(=O)N1C[C@@H]2CCOc3c(Cl)c(-c4c(O)cccc4F)c(F)c4ncnc(c34)N2C[C@H]1C` were, in that order, 2330 nM and 10400 nM.
Taken in the same sequence, the figures for `O=C1CC(c2ccccc2)Cc2nc3ccc(Br)cc3cc21` (configuration not stated) were 2230 nM and 7940 nM.
Turning to `Clc1cc(Cl)c(OCCCCCCN2CCNCC2)c(Cl)c1`, the GI50 was 2140 nM and the TGI turned out to be 4610 nM.
For `CC(C)(C)c1cc(/C=N/NC(=O)c2ccccc2NC(=O)c2cccs2)c(O)c(C(C)(C)C)c1`, the GI50 is 386 nM and the TGI is 20500 nM.
Take `CC(C)(c1ccccc1)c1cc(O)c(C(C)(C)c2ccccc2)cc1O`: the GI50 was 376 nM and the TGI worked out at 3720 nM.
Taken in the same sequence, the figures for `COc1ccc(/C=C2\COc3ccc(O)c(O)c3C2=O)c(OC)c1OC` were 2180 nM and 6280 nM.
Taken in the same sequence, the figures for `O=c1cnnc(N/N=C/c2ccccc2O)[nH]1` were 265 nM and 3320 nM.
The like results for `CN1CCN(c2ccc(Nc3nc(NCCCNS(=O)(=O)c4ccccc4)c4sccc4n3)cc2)CC1` were, in that order, 11800 nM and 26400 nM.
In the case of `Oc1c(Cl)cc(Cl)cc1/C=N/Nc1nnc(N/N=C/c2cc(Cl)cc(Cl)c2O)c2ccccc12`, the GI50 was 337 nM and the TGI stood at 1880 nM.
With `COC(=O)[C@]12CC[C@@H](C)[C@H](C)[C@@H]1C1=CC[C@@H]3[C@@]4(C)C[C@@H](OC(=O)/C=C/c5ccccc5)[C@H](O)[C@@](C)(CO)[C@@H]4[C@H](O)C[C@@]3(C)[C@]1(C)CC2`, the GI50 is 2540 nM and the TGI is 8940 nM.
The like results for `N#Cc1c(NC(=O)c2ccc(F)cc2)sc2c1CCCC2` were, in that order, over 25000 nM and over 25000 nM.
The like results for `COc1ccc(NC2=C(I)C(=O)c3ncccc3C2=O)cc1` were, in that order, 1350 nM and 2940 nM.
Taken in the same sequence, the figures for `CC(C)[C@@](O)(c1ccc2cc(OC(F)F)c(OC(F)F)cc2c1)c1cn[nH]n1` were 12900 nM and 47400 nM.
With `COc1cccc(-c2cc(=O)c3cc(N4CCOCC4)ccc3[nH]2)c1`, the GI50 was 927 nM and the TGI was over 100000 nM.
For the molecule `O=Nc1c(-c2c(O)[nH]c3cc(Br)ccc23)[nH]c2ccccc12`, the GI50 was 2000 nM and the TGI amounted to 4930 nM.
Taken in the same sequence, the figures for `Cc1ccc2cccc(OC(=O)Nc3cccc(C(F)(F)F)c3)c2n1` were 3650 nM and 12900 nM.
The like results for `COc1cc(CNCCN2C(=O)c3ccc4c5c(ccc(c35)C2=O)C(=O)N(CCNCc2cc(OC)c(OC)c(OC)c2)C4=O)cc(OC)c1OC` were, in that order, 123 nM and 323 nM.
Taken in the same sequence, the figures for `Cn1cc(-c2nc(-c3c[nH]c4ncccc34)cs2)c2ccccc21` were 314 nM and 820 nM.
For the molecule `CN(C)CC(=O)Nc1ccc2ncnc(Nc3ccc(Oc4cccc(C(F)(F)F)c4)c(Cl)c3)c2c1`, the GI50 is 1280 nM and the TGI was 3230 nM.
Taken in the same sequence, the figures for `COc1ccc(C(=NN=C(N)N)c2ccc(OC)cc2)cc1` were 1710 nM and 4710 nM.
Taken in the same sequence, the figures for `C#Cc1cccc(Nc2ncnc3ccc(OCCCCNCCS(C)(=O)=O)cc23)c1` were 94 nM and 666 nM.
Consider `CCc1cnn2c(NCc3ccc[n+]([O-])c3)cc(N3CCCC[C@H]3CCO)nc12`, for which the GI50 was < 10 nM and 2.21 nM; the TGI was < 10 nM and 5.88 nM.
With `COc1ccc(C2CC(c3ccc(Nc4ccnc5cc(Cl)ccc45)cc3)=NN2C=O)cc1` (configuration not stated), the GI50 is 1000 nM and the TGI came to 6840 nM.
